Source: patent publication US20070189973A1, “Contrast medium comprising liposomes containing hydrophobic chelate compound” (priority 2003, published 2007)

System: vascular smooth muscle cells
Test: Uptake amount of chelate compound by vascular smooth muscle cells (mixed culture with macrophages)
Type: cell-based
Details: liposome preparation PC: 50 nmol+PS: 50 nmol+Compound 1: 75 nmol; mixed culture system of vascular smooth muscle cells and macrophage; 37° C., 5% CO2, 24 hours
Method: Uptake Amount of Chelate Compound by Vascular Smooth Muscle Cells
Dipalmitoyl-PC (Funakoshi, No. 1201-41-0225) and dipalmitoyl-PS (Funakoshi, No. 1201-42-0237) at the ratio shown below were dissolved in chloroform together with a hydrophobic chelate compound (Compound 1 specifically shown above as a preferred compound) in an eggplant-shaped flask according to the method described in J. Med. Chem., 25 (12), 1500 (1982) to form a uniform solution. Then, the solvent was evaporated under reduced pressure to form a thin membrane on the bottom of the flask bottom. This thin membrane was dried in vacuum, then added with an appropriate amount of 0.9% physiological saline (Hikari Pharmaceutical, No. 512) and subjected to ultrasonication (No. 3542 probe type oscillator, Branson, 0.1 mW) for 5 minutes to obtain a uniform liposome dispersion. The diameters of the liposomes in the resulting dispersion were measured by using WBC analyzer (A-1042, Nihon Kohden). […] The liposome preparation mentioned below, which was produced by the above method, was added to a mixed culture system of vascular smooth muscle cells and macrophage described in International Publication WO 01/82977. The cells were cultured at 37° C. under 5% CO2 for 24 hours, and the amount of the chelate compound taken up into the vascular smooth muscle cells was quantified.
PC: 50 nmol+PS: 50 nmol+Compound 1: 75 nmol […]

## CC(C)CCCC(C)C1CCC2C3C=CC4CC(OC(=O)COC(=O)CN(CCN(CC(=O)O)CC(=O)O)CCN(CC(=O)O)CC(=O)O)CCC4(C)C3CCC12C (stereo not shown) [Compound 1]
  Amount taken up by vascular smooth muscle cells: 20 nmol/mg protein
